Measured values as given in ChEMBL document CHEMBL4507261, “Data for DCP probe A-192621” (2021).

What was measured:
[1] = target: Ribosomal protein S6 kinase alpha-3 (Homo sapiens) (UniProt P51812); conditions: Compound concentration 1000.0 nM
[2] = target: Mitogen-activated protein kinase kinase kinase kinase 1 (Homo sapiens) (UniProt Q92918); conditions: Compound concentration 1000.0 nM
[3] = target: Dual specificity protein kinase CLK4 (Homo sapiens) (UniProt Q9HAZ1); conditions: Compound concentration 1000.0 nM
[4] = target: TGF-beta receptor type-1 (Homo sapiens) (UniProt P36897); conditions: Compound concentration 1000.0 nM
[5] = target: Mitogen-activated protein kinase kinase kinase 19 (Homo sapiens) (UniProt Q56UN5); conditions: Compound concentration 1000.0 nM
[6] = target: Aurora kinase C (Homo sapiens) (UniProt Q9UQB9); conditions: Compound concentration 1000.0 nM
[7] = system: Hepatocyte growth factor receptor (Homo sapiens), P08581 [M1250T]; conditions: Compound concentration 1000.0 nM
[8] = target: Ephrin type-B receptor 1 (Homo sapiens) (UniProt P54762); conditions: Compound concentration 1000.0 nM
[9] = target: Tyrosine-protein kinase FRK (Homo sapiens) (UniProt P42685); conditions: Compound concentration 1000.0 nM
[10] = target: Serine/threonine-protein kinase PLK3 (Homo sapiens) (UniProt Q9H4B4); conditions: Compound concentration 1000.0 nM
[11] = target: Mitogen-activated protein kinase 7 (Homo sapiens) (UniProt Q13164); conditions: Compound concentration 1000.0 nM
[12] = target: Serine/threonine-protein kinase N1 (Homo sapiens) (UniProt Q16512); conditions: Compound concentration 1000.0 nM
[13] = target: Ephrin type-A receptor 5 (Homo sapiens) (UniProt P54756); conditions: Compound concentration 1000.0 nM
[14] = target: 3-phosphoinositide-dependent protein kinase 1 (Homo sapiens) (UniProt O15530); conditions: Compound concentration 1000.0 nM
[15] = target: Rho-associated protein kinase 1 (Homo sapiens) (UniProt Q13464); conditions: Compound concentration 1000.0 nM
Chain of Rho-associated protein kinase 1 (Homo sapiens) (Q13464 2-1354 limits assumed): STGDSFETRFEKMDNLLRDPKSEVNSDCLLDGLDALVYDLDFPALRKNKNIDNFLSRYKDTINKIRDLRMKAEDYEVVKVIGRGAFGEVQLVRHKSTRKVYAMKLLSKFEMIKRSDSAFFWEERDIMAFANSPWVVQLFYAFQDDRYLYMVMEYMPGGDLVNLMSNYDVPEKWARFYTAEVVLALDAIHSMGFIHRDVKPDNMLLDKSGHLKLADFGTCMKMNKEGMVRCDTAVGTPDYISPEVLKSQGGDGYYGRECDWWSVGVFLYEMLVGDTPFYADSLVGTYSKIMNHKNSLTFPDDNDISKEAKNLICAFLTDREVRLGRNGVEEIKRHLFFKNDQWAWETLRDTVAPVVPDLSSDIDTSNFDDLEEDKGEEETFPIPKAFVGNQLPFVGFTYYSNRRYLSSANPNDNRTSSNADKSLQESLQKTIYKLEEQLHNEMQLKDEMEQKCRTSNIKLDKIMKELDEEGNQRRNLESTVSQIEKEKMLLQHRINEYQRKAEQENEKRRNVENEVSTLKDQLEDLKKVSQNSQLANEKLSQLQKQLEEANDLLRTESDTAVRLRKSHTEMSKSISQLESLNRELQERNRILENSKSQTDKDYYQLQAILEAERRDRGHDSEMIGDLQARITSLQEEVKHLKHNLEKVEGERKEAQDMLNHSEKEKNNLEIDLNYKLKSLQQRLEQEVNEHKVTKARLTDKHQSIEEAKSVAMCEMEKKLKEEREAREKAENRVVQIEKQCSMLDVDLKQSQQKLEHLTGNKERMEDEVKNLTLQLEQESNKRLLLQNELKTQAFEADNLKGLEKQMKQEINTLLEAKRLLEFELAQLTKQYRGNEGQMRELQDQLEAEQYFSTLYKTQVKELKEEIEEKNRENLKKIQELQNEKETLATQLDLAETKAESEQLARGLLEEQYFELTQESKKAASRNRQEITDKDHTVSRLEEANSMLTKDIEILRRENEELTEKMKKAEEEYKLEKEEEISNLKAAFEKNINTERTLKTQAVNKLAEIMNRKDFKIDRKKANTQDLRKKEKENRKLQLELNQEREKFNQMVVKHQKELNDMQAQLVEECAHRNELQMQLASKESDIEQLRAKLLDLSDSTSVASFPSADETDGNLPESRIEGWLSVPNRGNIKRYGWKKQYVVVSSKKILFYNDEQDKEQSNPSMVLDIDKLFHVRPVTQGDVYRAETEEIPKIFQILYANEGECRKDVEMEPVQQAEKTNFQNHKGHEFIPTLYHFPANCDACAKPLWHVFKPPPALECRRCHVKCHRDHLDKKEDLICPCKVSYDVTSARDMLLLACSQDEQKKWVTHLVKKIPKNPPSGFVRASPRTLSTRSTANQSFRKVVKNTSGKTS

[16] = target: Serine/threonine-protein kinase N2 (Homo sapiens) (UniProt Q16513); conditions: Compound concentration 1000.0 nM
[17] = target: Activin receptor type-2A (Homo sapiens) (UniProt P27037); conditions: Compound concentration 1000.0 nM
[18] = target: Beta-1 adrenergic receptor (Homo sapiens) (UniProt P08588); assay: Beta1 (h) Eurofins-Cerep binding assay; design: ligand concentration 0.3 nM; conditions: filed as agonist, Compound concentration 10.0 uM
Chain of Beta-1 adrenergic receptor (Homo sapiens) (P08588 whole entry, looked up): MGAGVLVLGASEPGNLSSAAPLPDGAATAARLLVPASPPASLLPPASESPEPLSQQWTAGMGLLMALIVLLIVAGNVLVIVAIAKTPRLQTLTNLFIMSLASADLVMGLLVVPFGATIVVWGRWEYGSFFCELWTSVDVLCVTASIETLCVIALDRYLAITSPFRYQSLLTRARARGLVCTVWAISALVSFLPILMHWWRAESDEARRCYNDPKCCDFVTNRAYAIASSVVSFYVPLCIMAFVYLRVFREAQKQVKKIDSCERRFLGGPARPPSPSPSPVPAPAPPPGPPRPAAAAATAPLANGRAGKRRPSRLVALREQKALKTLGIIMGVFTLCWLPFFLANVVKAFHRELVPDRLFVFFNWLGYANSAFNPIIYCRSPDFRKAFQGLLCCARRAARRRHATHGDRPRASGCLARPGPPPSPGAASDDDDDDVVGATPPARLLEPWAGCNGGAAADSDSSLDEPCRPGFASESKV

[19] = system: Tyrosine-protein kinase ABL1 (Homo sapiens), P00519 [F317I]; conditions: Compound concentration 1000.0 nM
[20] = target: Serine/threonine-protein kinase WNK2 (Homo sapiens) (UniProt Q9Y3S1); conditions: Compound concentration 1000.0 nM
[21] = target: cGMP-dependent protein kinase 2 (Homo sapiens) (UniProt Q13237); conditions: Compound concentration 1000.0 nM
[22] = target: Glycogen synthase kinase-3 alpha (Homo sapiens) (UniProt P49840); conditions: Compound concentration 1000.0 nM
[23] = target: Phosphorylase b kinase gamma catalytic chain, skeletal muscle/heart isoform (Homo sapiens) (UniProt Q16816); conditions: Compound concentration 1000.0 nM
Chain of Phosphorylase b kinase gamma catalytic chain, skeletal muscle/heart isoform (Homo sapiens) (Q16816 whole entry, looked up, canonical isoform): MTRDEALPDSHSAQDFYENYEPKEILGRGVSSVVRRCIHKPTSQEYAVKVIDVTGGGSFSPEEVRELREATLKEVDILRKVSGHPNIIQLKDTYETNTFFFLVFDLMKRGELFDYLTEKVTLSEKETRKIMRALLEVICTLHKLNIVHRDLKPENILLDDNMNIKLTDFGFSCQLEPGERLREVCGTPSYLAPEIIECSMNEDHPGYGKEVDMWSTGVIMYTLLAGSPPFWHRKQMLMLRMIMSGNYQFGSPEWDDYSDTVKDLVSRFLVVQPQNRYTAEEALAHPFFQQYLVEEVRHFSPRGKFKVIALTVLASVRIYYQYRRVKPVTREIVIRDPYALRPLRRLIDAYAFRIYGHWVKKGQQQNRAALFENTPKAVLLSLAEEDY

[24] = target: Transient receptor potential cation channel subfamily M member 6 (Homo sapiens) (UniProt Q9BX84); conditions: Compound concentration 1000.0 nM
Chain of Transient receptor potential cation channel subfamily M member 6 (Homo sapiens) (Q9BX84 whole entry): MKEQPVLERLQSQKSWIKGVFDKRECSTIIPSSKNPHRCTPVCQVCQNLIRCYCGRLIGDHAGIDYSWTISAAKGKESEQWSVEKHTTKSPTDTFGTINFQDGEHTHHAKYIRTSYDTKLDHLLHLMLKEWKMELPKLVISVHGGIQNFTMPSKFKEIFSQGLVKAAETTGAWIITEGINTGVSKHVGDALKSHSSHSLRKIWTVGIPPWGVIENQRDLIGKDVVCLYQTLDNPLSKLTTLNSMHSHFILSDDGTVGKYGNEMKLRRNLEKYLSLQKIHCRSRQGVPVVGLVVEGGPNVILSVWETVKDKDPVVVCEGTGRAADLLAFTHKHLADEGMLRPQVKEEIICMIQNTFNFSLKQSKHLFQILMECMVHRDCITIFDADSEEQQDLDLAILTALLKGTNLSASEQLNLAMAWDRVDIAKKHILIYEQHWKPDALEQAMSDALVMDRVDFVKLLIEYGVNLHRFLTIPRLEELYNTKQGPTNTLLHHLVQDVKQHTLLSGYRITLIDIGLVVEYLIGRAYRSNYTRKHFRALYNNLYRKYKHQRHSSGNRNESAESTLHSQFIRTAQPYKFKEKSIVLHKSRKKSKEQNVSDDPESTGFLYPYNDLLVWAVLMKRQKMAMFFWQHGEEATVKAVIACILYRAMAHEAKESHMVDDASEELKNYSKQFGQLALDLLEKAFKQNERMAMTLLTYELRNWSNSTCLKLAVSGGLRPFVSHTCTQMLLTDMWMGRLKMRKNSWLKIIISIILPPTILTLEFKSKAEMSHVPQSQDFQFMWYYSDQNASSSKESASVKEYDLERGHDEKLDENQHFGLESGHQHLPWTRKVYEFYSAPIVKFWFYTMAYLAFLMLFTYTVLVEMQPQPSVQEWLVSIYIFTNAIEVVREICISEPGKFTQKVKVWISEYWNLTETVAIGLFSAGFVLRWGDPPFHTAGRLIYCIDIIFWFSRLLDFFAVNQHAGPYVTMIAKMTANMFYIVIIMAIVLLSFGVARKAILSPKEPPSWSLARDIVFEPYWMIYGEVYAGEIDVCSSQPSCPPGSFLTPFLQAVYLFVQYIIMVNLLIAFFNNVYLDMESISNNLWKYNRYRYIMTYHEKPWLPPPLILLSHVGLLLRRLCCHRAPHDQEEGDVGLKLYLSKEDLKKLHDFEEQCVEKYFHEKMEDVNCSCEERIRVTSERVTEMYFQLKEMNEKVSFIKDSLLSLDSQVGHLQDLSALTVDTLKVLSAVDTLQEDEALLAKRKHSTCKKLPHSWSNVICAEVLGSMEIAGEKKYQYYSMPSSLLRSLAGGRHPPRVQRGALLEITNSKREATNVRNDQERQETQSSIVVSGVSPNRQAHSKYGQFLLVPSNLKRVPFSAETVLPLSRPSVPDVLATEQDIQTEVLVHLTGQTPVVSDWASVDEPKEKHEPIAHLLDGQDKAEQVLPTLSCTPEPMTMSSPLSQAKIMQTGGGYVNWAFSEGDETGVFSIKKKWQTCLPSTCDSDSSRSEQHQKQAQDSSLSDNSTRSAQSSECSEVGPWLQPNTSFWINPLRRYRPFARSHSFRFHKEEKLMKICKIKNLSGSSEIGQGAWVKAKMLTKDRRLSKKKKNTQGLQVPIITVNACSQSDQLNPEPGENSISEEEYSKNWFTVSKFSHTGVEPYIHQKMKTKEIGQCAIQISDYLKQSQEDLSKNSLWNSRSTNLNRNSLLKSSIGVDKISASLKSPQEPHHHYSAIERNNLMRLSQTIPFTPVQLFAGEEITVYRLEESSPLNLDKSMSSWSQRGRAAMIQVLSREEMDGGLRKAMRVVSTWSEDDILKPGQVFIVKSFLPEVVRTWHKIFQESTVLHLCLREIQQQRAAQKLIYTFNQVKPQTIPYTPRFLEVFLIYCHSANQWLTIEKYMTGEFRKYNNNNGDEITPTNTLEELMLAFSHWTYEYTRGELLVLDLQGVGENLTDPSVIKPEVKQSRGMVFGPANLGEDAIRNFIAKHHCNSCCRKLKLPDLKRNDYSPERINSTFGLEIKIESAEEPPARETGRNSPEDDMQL

[25] = target: Serine/threonine-protein kinase PknB (Mycobacterium tuberculosis) (UniProt P9WI81); conditions: Compound concentration 1000.0 nM
[26] = target: Cyclin-dependent kinase-like 2 (Homo sapiens) (UniProt Q92772); conditions: Compound concentration 1000.0 nM
[27] = system: Receptor-type tyrosine-protein kinase FLT3 (Homo sapiens), P36888 [N841I]; conditions: Compound concentration 1000.0 nM
[28] = target: Histamine H2 receptor (Homo sapiens) (UniProt P25021); assay: H2 (h) Eurofins-Cerep binding assay; design: ligand concentration 0.075 nM; conditions: filed as antagonist, Compound concentration 10.0 uM
[29] = target: SRSF protein kinase 3 (Homo sapiens) (UniProt Q9UPE1); conditions: Compound concentration 1000.0 nM
Chain of SRSF protein kinase 3 (Homo sapiens) (Q9UPE1 whole entry): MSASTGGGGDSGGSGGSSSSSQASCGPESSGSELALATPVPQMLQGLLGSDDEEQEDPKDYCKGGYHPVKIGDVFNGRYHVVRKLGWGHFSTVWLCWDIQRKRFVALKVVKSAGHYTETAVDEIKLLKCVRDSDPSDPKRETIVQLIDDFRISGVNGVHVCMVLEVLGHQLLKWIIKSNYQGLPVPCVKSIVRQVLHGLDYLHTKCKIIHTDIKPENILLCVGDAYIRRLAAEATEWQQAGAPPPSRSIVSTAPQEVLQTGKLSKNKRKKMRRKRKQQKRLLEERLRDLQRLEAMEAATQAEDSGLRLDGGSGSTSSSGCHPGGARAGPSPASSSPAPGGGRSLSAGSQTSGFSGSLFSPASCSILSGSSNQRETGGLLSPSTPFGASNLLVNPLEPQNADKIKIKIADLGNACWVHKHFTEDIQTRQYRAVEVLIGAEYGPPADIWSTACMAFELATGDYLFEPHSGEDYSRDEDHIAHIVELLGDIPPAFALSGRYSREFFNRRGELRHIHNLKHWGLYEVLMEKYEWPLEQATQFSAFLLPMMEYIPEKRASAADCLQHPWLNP

[30] = target: Cytoplasmic tyrosine-protein kinase BMX (Homo sapiens) (UniProt P51813); conditions: Compound concentration 1000.0 nM
[31] = target: Macrophage colony-stimulating factor 1 receptor (Homo sapiens) (UniProt P07333); conditions: Compound concentration 1000.0 nM
[32] = target: Dual specificity protein kinase CLK3 (Homo sapiens) (UniProt P49761); conditions: Compound concentration 1000.0 nM
[33] = target: Fibroblast growth factor receptor 1 (Homo sapiens) (UniProt P11362); conditions: Compound concentration 1000.0 nM
[34] = target: Casein kinase I isoform gamma-2 (Homo sapiens) (UniProt P78368); conditions: Compound concentration 1000.0 nM
[35] = target: Serine/threonine-protein kinase 16 (Homo sapiens) (UniProt O75716); conditions: Compound concentration 1000.0 nM
[36] = target: Serine/threonine-protein kinase TAO2 (Homo sapiens) (UniProt Q9UL54); conditions: Compound concentration 1000.0 nM
[37] = target: voltage-gated L-type Ca2+ channel (dihydropyridine site) (Rattus norvegicus, UniProt P22002+P27732+Q02485); assay: Ca2+ channel (L, dihydropyridine site) Eurofins-Cerep binding assay; design: incubation time 90 min, incubation temperature RT, ligand concentration 0.1 nM; conditions: rat cerebral cortex (source of protein), probe [3H]nitrendipine (0.1 nM), compound concentration 10 uM, read-out: % Inhibition of Control Specific Binding (Mean n=2)
[38] = target: Serine/threonine-protein kinase D3 (Homo sapiens) (UniProt O94806); conditions: Compound concentration 1000.0 nM
[39] = target: Wee1-like protein kinase (Homo sapiens) (UniProt P30291); conditions: Compound concentration 1000.0 nM
[40] = target: Neuropeptide Y receptor type 1 (Homo sapiens) (UniProt P25929); assay: Y1 (h) Eurofins-Cerep binding assay; design: ligand concentration 0.025 nM; conditions: filed as agonist, Compound concentration 10.0 uM
[41] = target: Alpha-2C adrenergic receptor (Homo sapiens) (UniProt P18825); conditions: Compound concentration 10.0 uM
[42] = target: Ephrin type-A receptor 7 (Homo sapiens) (UniProt Q15375); conditions: Compound concentration 1000.0 nM
[43] = target: ALK tyrosine kinase receptor (Homo sapiens) (UniProt Q9UM73); conditions: Compound concentration 1000.0 nM
[44] = target: Tyrosine-protein kinase Fes/Fps (Homo sapiens) (UniProt P07332); conditions: Compound concentration 1000.0 nM

Q: `CCCOc1ccc([C@H]2[C@H](C(=O)O)[C@@H](c3ccc4c(c3)OCO4)CN2CC(=O)Nc2c(CC)cccc2CC)cc1` [A-192621] was tested. Which residual activity [1] did it give?
A: 72%

Q: And the residual activity [2]?
A: 92%

Q: And the residual activity [3]?
A: 100%

Q: And the residual activity [4]?
A: 64%

Q: What about the residual activity [5] of the same molecule?
A: 77%

Q: And the residual activity [6]?
A: 91%

Q: And the residual activity [7]?
A: 71%

Q: What about the residual activity [8] of the same molecule?
A: 100%

Q: And the residual activity [9]?
A: 100%

Q: What about the residual activity [10] of the same molecule?
A: 83%

Q: What about the residual activity [11] of the same molecule?
A: 97%

Q: And the residual activity [12]?
A: 87%

Q: And the residual activity [13]?
A: 100%

Q: And the residual activity [14]?
A: 100%

Q: What about the residual activity [15] of the same molecule?
A: 65%

Q: What about the residual activity [16] of the same molecule?
A: 100%

Q: And the residual activity [17]?
A: 100%

Q: What about the % Inhibition of Control Specific Binding (Mean n=2) [18] of the same molecule?
A: 1.4%

Q: And the residual activity [19]?
A: 76%

Q: What about the residual activity [20] of the same molecule?
A: 58%

Q: What about the residual activity [21] of the same molecule?
A: 82%

Q: And the residual activity [22]?
A: 86%

Q: What about the residual activity [23] of the same molecule?
A: 99%

Q: What about the residual activity [24] of the same molecule?
A: 94%

Q: What about the residual activity [25] of the same molecule?
A: 78%

Q: And the residual activity [26]?
A: 84%

Q: What about the residual activity [27] of the same molecule?
A: 93%

Q: What about the % Inhibition of Control Specific Binding (Mean n=2) [28] of the same molecule?
A: -35.3%

Q: And the residual activity [29]?
A: 100%

Q: And the residual activity [30]?
A: 100%

Q: And the residual activity [31]?
A: 90%

Q: What about the residual activity [32] of the same molecule?
A: 97%

Q: What about the residual activity [33] of the same molecule?
A: 100%

Q: What about the residual activity [34] of the same molecule?
A: 100%

Q: What about the residual activity [35] of the same molecule?
A: 72%

Q: And the residual activity [36]?
A: 74%

Q: And the inhibition at 90 min, 10 µM [37]?
A: 30.3%

Q: And the residual activity [38]?
A: 93%

Q: And the residual activity [39]?
A: 93%

Q: What about the % Inhibition of Control Specific Binding (Mean n=2) [40] of the same molecule?
A: -9.3%

Q: And the inhibition [41]?
A: 0.5%

Q: And the residual activity [42]?
A: 98%

Q: And the residual activity [43]?
A: 100%

Q: What about the residual activity [44] of the same molecule?
A: 96%

Q: For `CCCOc1ccc([C@@H]2[C@@H](C(=O)O)[C@H](c3ccc4c(c3)OCO4)CN2CC(=O)Nc2c(CC)cccc2CC)cc1` [A-1806262], which residual activity [1] is on record?
A: 95%

Q: And the residual activity [2]?
A: 92%

Q: What about the residual activity [3] of the same molecule?
A: 89%

Q: And the residual activity [4]?
A: 64%

Q: What about the residual activity [5] of the same molecule?
A: 93%

Q: And the residual activity [6]?
A: 94%

Q: And the residual activity [7]?
A: 81%

Q: And the residual activity [8]?
A: 91%

Q: What about the residual activity [9] of the same molecule?
A: 89%

Q: What about the residual activity [10] of the same molecule?
A: 88%

Q: What about the residual activity [11] of the same molecule?
A: 93%

Q: And the residual activity [12]?
A: 100%

Q: What about the residual activity [13] of the same molecule?
A: 100%

Q: What about the residual activity [14] of the same molecule?
A: 100%

Q: And the residual activity [15]?
A: 81%

Q: And the residual activity [16]?
A: 100%

Q: What about the residual activity [17] of the same molecule?
A: 100%

Q: What about the % Inhibition of Control Specific Binding (Mean n=2) [18] of the same molecule?
A: 8.2%

Q: And the residual activity [19]?
A: 96%

Q: And the residual activity [20]?
A: 88%

Q: What about the residual activity [21] of the same molecule?
A: 83%

Q: What about the residual activity [22] of the same molecule?
A: 100%

Q: And the residual activity [23]?
A: 97%

Q: What about the residual activity [24] of the same molecule?
A: 77%

Q: And the residual activity [25]?
A: 98%

Q: What about the residual activity [26] of the same molecule?
A: 96%

Q: What about the residual activity [27] of the same molecule?
A: 88%

Q: And the % Inhibition of Control Specific Binding (Mean n=2) [28]?
A: -18.1%

Q: And the residual activity [29]?
A: 93%

Q: What about the residual activity [30] of the same molecule?
A: 100%

Q: And the residual activity [31]?
A: 100%

Q: What about the residual activity [32] of the same molecule?
A: 93%

Q: And the residual activity [33]?
A: 100%

Q: And the residual activity [34]?
A: 96%

Q: And the residual activity [35]?
A: 87%

Q: And the residual activity [36]?
A: 91%

Q: What about the inhibition at 90 min, 10 µM [37] of the same molecule?
A: 27.2%

Q: And the residual activity [38]?
A: 86%

Q: And the residual activity [39]?
A: 95%

Q: What about the % Inhibition of Control Specific Binding (Mean n=2) [40] of the same molecule?
A: -5.6%

Q: What about the residual activity [42] of the same molecule?
A: 92%

Q: What about the residual activity [43] of the same molecule?
A: 100%

Q: What about the residual activity [44] of the same molecule?
A: 97%
